# Literature values in patent publication US20220125711A1, “CANNABINOID-CONTAINING ORAL THIN FILM FORMULATIONS” (JDEM Properties, LLC, priority 2020, published 2022).
# System: Drosophila
# Details: dietary theanine, dose-dependent (Ki and Lim)
compound,measurement,value
CCNC(=O)CC[C@H](N)C(=O)O [L-theanine],daily amount of sleep,markedly increased
same,latency to sleep onset,decreased
